These results are taken from patent US10945435B2, “Imidazopyrimidine derivatives with sulfur containing phenyl and pyridyl substituents” (SYNGENTA PARTICIPATIONS AG, priority 2017, dated 2021).

For series [1], the system named is Spodoptera littoralis (Egyptian Cotton Leaf Worm). In words: Example B16 Spodoptera littoralis feeding/contact activity. The class given is in vivo. As to conditions: foliar, 72 h, application rate of 200 ppm, L1 larvae on sprayed cotton leaf discs, 3 days after infestation. The procedure:
Spodoptera littoralis (Egyptian Cotton Leaf Worm): Feeding/Contact Activity
Cotton leaf discs were placed onto agar in 24-well microtiter plates and sprayed with aqueous test solutions prepared from 10,000 ppm DMSO stock solutions. After drying the leaf discs were infested with five L1 larvae. The samples were assessed for mortality 3 days after infestation.

For series [2], the system named is Plutella xylostella (Diamond Back Moth). In words: Example B12 Plutella xylostella feeding/contact activity. It is filed as in vivo. As to conditions: 120 h, application rate of 200 ppm, L2 larvae on treated artificial diet, 5 days after infestation. The method, then:
Plutella xylostella (Diamond Back Moth): Feeding/Contact Activity
24-well microtiter plates with artificial diet were treated with aqueous test solutions prepared from 10,000 ppm DMSO stock solutions by pipetting. After drying, the plates were infested with L2 larvae (10 to 15 per well). The samples were assessed for mortality 5 days after infestation.

In series [3] the test system is Frankliniella occidentalis (Western Flower Thrips). The series can be described thus: Example B8 Frankliniella occidentalis feeding/contact activity. The class given is in vivo. Particulars: foliar, 168 h, application rate of 200 ppm, mixed-age population on sprayed sunflower leaf discs, 7 days after infestation. The procedure: Frankliniella occidentalis (Western Flower Thrips): Feeding/Contact Activity
Sunflower leaf discs were placed on agar in 24-well microtiter plates and sprayed with aqueous test solutions prepared from 10,000 DMSO stock solutions. After drying the leaf discs were infested with a Frankliniella population of mixed ages. The samples were assessed for mortality 7 days after infestation.

The test system of series [4] is Euschistus heros (Neotropical Brown Stink Bug). In words: Example B7 Euschistus heros feeding/contact activity. As to conditions: 120 h, application rate of 200 ppm, N2 nymphs on sprayed soybean leaves, 5 days after infestation. It is filed as in vivo. The method, then: Euschistus heros (Neotropical Brown Stink Bug): Feeding/Contact Activity
Soybean leaves on agar in 24-well microtiter plates were sprayed with aqueous test solutions prepared from 10,000 ppm DMSO stock solutions. After drying the leaves were infested with N2 nymphs. The samples were assessed for mortality 5 days after infestation.

Series [5] shares this test system. In words: Example B5 Euschistus heros mortality and growth inhibition. It is filed as in vivo. As to conditions: 120 h, application rate of 200 ppm, N2 nymphs on sprayed soybean leaves, 5 days after infestation, read-out: effect in at least one of the two categories (mortality or growth inhibition). The method, then: Euschistus heros (Neotropical Brown Stink Bug)
Soybean leaves on agar in 24-well microtiter plates were sprayed with aqueous test solutions prepared from 10,000 ppm DMSO stock solutions. After drying the leaves were infested with N2 nymphs. The samples were assessed for mortality and growth inhibition in comparison to untreated samples 5 days after infestation.

Series [6] has as its system Myzus persicae (Green Peach Aphid). In words: Example B9 Myzus persicae feeding/contact activity. The class given is in vivo. Particulars: foliar, 144 h, application rate of 200 ppm, mixed-age aphids on sprayed sunflower leaf discs, 6 days after infestation. The procedure:
Myzus persicae (Green Peach Aphid): Feeding/Contact Activity
Sunflower leaf discs were placed onto agar in a 24-well microtiter plate and sprayed with aqueous test solutions prepared from 10,000 ppm DMSO stock solutions. After drying, the leaf discs were infested with an aphid population of mixed ages. The samples were assessed for mortality 6 days after infestation.

Series [7] relates to Diabrotica balteata (Corn Root Worm). The series can be described thus: Example B4 Diabrotica balteata mortality. It is filed as in vivo. Particulars: 96 h, application rate of 200 ppm, L2 larvae on sprayed maize sprouts, 4 days after infestation. The method, then: (§1) Diabrotica Balteata (Corn Root Worm):
Maize sprouts placed onto an agar layer in 24-well microtiter plates were treated with aqueous test solutions prepared from 10,000 ppm DMSO stock solutions by spraying. After drying, the plates were infested with L2 larvae (6 to 10 per well). The samples were assessed for mortality 4 days after infestation.

The test system of series [8] is Bemisia tabaci (Cotton White Fly). The series can be described thus: Example B1 Bemisia tabaci feeding/contact activity. The class given is in vivo. As to conditions: foliar, 144 h, application rate of 200 ppm, adult white flies on sprayed cotton leaf discs, 6 days after incubation. The method, then:
Bemisia tabaci (Cotton White Fly): Feeding/Contact Activity
Cotton leaf discs were placed on agar in 24-well microtiter plates and sprayed with aqueous test solutions prepared from 10,000 ppm DMSO stock solutions. After drying the leaf discs were infested with adult white flies. The samples were checked for mortality 6 days after incubation.

The test system of series [9] is Diabrotica balteata (Corn Root Worm). In words: Example B2 Diabrotica balteata mortality and growth inhibition. The class given is in vivo. As to conditions: 96 h, application rate of 200 ppm, L2 larvae on sprayed maize sprouts, 4 days after infestation, read-out: effect in at least one of the two categories (mortality or growth inhibition). The procedure:
Diabrotica balteata (Corn Root Worm)
Maize sprouts placed onto an agar layer in 24-well microtiter plates were treated with aqueous test solutions prepared from 10,000 ppm DMSO stock solutions by spraying. After drying, the plates were infested with L2 larvae (6 to 10 per well). The samples were assessed for mortality and growth inhibition in comparison to untreated samples 4 days after infestation.

Series [10] concerns Spodoptera littoralis (Egyptian Cotton Leaf Worm). The series can be described thus: Example B14 Spodoptera littoralis anti-feeding activity. It is filed as in vivo. As to conditions: foliar, 72 h, application rate of 200 ppm, L1 larvae on sprayed cotton leaf discs, 3 days after infestation, read-out: control (anti-feeding effect). The procedure: Spodoptera littoralis (Egyptian Cotton Leaf Worm): Anti-Feeding Activity
Cotton leaf discs were placed onto agar in 24-well microtiter plates and sprayed with aqueous test solutions prepared from 10,000 ppm DMSO stock solutions. After drying the leaf discs were infested with five L1 larvae. The samples were assessed for anti-feeding effect in comparison to untreated samples 3 days after infestation. Control of Spodoptera littoralis by a test sample is given when the anti-feedant effect is higher than the untreated sample.

Series [11] shares this test system. In words: Example B15 Spodoptera littoralis growth inhibition activity. The class given is in vivo. Particulars: foliar, 72 h, application rate of 200 ppm, L1 larvae on sprayed cotton leaf discs, 3 days after infestation, read-out: control (growth inhibition). The procedure:
Spodoptera littoralis (Egyptian Cotton Leaf Worm): Growth Inhibition Activity
Cotton leaf discs were placed onto agar in 24-well microtiter plates and sprayed with aqueous test solutions prepared from 10,000 ppm DMSO stock solutions. After drying the leaf discs were infested with five L1 larvae. The samples were assessed for growth inhibition in comparison to untreated samples 3 days after infestation. Control of Spodoptera littoralis by a test sample is given when the growth inhibition is higher than the untreated sample.

In series [12] the test system is Plutella xylostella (Diamond Back Moth). The series can be described thus: Example B13 Plutella xylostella mortality and growth inhibition. It is filed as in vivo. As to conditions: 120 h, application rate of 200 ppm, L2 larvae on treated artificial diet, 5 days after infestation, read-out: effect in at least one of the two categories (mortality or growth inhibition). The procedure:
Plutella xylostella (Diamond Back Moth)
24-well microtiter plates with artificial diet were treated with aqueous test solutions prepared from 10,000 ppm DMSO stock solutions by pipetting. After drying, the plates were infested with L2 larvae (10 to 15 per well). The samples were assessed for mortality and growth inhibition in comparison to untreated samples 5 days after infestation.

For series [13] the test system is unchanged. The series can be described thus: Example B11 Plutella xylostella growth inhibition activity. As to conditions: 120 h, application rate of 200 ppm, L2 larvae on treated artificial diet, 5 days after infestation. The class given is in vivo. The procedure: Plutella xylostella (Diamond Back Moth): Growth Inhibition Activity
24-well microtiter plates with artificial diet were treated with aqueous test solutions prepared from 10,000 ppm DMSO stock solutions by pipetting. After drying, the plates were infested with L2 larvae (10 to 15 per well). The samples were assessed for growth inhibition in comparison to untreated samples 5 days after infestation. Control of Plutella xylostella by a test sample is given when the growth inhibition is higher than the untreated sample.

The test system of series [14] is Myzus persicae (Green Peach Aphid). In words: Example B10 Myzus persicae systemic activity. It is filed as in vivo. Particulars: 144 h, test rate of 24 ppm, roots of infested pea seedlings in test solution, 6 days. The method, then: Myzus persicae (Green Peach Aphid). Systemic Activity
Roots of pea seedlings infested with an aphid population of mixed ages were placed directly into aqueous test solutions prepared from 10,000 DMSO stock solutions. The samples were assessed for mortality 6 days after placing seedlings into test solutions.

In series [15] the test system is Diabrotica balteata (Corn Root Worm). The series can be described thus: Example B3 Diabrotica balteata growth inhibition. As to conditions: 96 h, application rate of 200 ppm, L2 larvae on sprayed maize sprouts, 4 days after infestation. It is filed as in vivo. The method, then: as §1
Maize sprouts placed onto an agar layer in 24-well microtiter plates were treated with aqueous test solutions prepared from 10,000 ppm DMSO stock solutions by spraying. After drying, the plates were infested with L2 larvae (6 to 10 per well). The samples were assessed for growth inhibition in comparison to untreated samples 4 days after infestation. Control of Diabrotica balteata by a test sample is given when the growth inhibition is higher than in the untreated sample.

`CCS(=O)(=O)c1cc(O)cnc1-c1cn2cnc(C(F)(F)F)cc2n1` [Compound P10, 5-ethylsulfonyl-6-[7-(trifluoromethyl)imidazo[1,2-c]pyrimidin-2-yl]pyridin-3-ol] displayed a melting point of 229 to 232 °C.

Turning to `CCS(=O)(=O)c1cc(OC(C)(C)C#N)cnc1-c1cn2cnc(SC(F)(F)F)cc2n1` [Compound P17, 2-[[5-ethylsulfonyl-6-[7-(trifluoromethylsulfanyl)imidazo[1,2-c]pyrimidin-2-yl]-3-pyridyl]oxy]-2-methyl-propanenitrile], the mortality at 200 ppm in series [1], in [2], in [3], in [4], in [6] and in [7] was not below 80% each time. In series [8], this compound yielded a mortality at 200 ppm not below 80%. Moreover, the percent effect (mortality or growth inhibition) at 200 ppm in [5], in series [9] and in series [12] was not below 80% each time. Moreover, the pest or weed control at 200 ppm in series [10] is not below 80%. Besides, in [11], the inhibition at 200 ppm is not below 80%.

In the case of `CCS(=N)(=O)c1cc(OC(C)(C)C#N)cnc1-c1cn2cnc(C(F)(F)C(F)(F)F)cc2n1` (stereo not drawn) [Compound P19, 2-[[5-(ethylsulfonimidoyl)-6-[7-(1,1,2,2,2-pentafluoroethyl)imidazo[1,2-c]pyrimidin-2-yl]-3-pyridyl]oxy]-2-methyl-propanenitrile], the mortality at 200 ppm in series [1], in series [2], in [3], in series [4], in [6] and in [7] was not below 80% in each case. Besides, the mortality at 200 ppm in series [8] is not below 80%. Moreover, the percent effect (mortality or growth inhibition) at 200 ppm in series [5], in [9] and in series [12] was not below 80% in each case. Besides, the pest or weed control at 200 ppm in [10] is not below 80%. In addition, the inhibition at 200 ppm in series [11] and in series [13] was not below 80% throughout. The mortality at 24 ppm in series [14] is not below 80%.

For the compound `CCS(=N)(=O)c1cc(OC(C)(C)C#N)cnc1-c1cn2cnc(C(F)(F)F)cc2n1` (stereo not drawn) [Compound P20, 2-[[5-(ethylsulfonimidoyl)-6-[7-(trifluoromethyl)imidazo[1,2-c]pyrimidin-2-yl]-3-pyridyl]oxy]-2-methyl-propanenitrile], the mortality at 200 ppm in series [1], in series [2], in [6], in [7] and in series [8] was not below 80% in each case. Also, the inhibition at 200 ppm in series [15] and in series [13] was not below 80% throughout. Besides, the percent effect (mortality or growth inhibition) at 200 ppm in [9] and in [12] was not below 80% in each case. Further, the pest or weed control at 200 ppm in series [10] is not below 80%. Besides, the mortality at 24 ppm in series [14] is not below 80%.

Take `CCS(=O)(=O)c1cc(OCCS(C)(=O)=O)cnc1-c1cn2cnc(C(F)(F)F)cc2n1` [Compound P24, 2-[3-ethylsulfonyl-5-(2-methylsulfonylethoxy)-2-pyridyl]-7-(trifluoromethyl)imidazo[1,2-c]pyrimidine]: the melting point fell in the range of 209 to 210 °C.

Take `CCS(=O)(=O)c1cc(OCC(F)(F)F)cnc1-c1nc2cc(C(F)(F)F)ncn2c1Br` [Compound P25, 3-bromo-2-[3-ethylsulfonyl-5-(2,2,2-trifluoroethoxy)-2-pyridyl]-7-(trifluoromethyl)imidazo[1,2-c]pyrimidine]: the melting point was 86 to 88 °C.

`CCS(=O)(=O)c1cc(OCS(C)(=O)=O)cnc1-c1cn2cnc(C(F)(F)C(F)(F)F)cc2n1` [Compound P26, 2-[3-ethylsulfonyl-5-(methylsulfonylmethoxy)-2-pyridyl]-7-(1,1,2,2,2-pentafluoroethyl)imidazo[1,2-c]pyrimidine] gave a melting point of 248 to 250 °C.

`CCS(=O)(=O)c1cc(O)cnc1-c1nc2cc(C(F)(F)F)ncn2c1Br` [Compound P27, 6-[3-bromo-7-(trifluoromethyl)imidazo[1,2-c]pyrimidin-2-yl]-5-ethylsulfonyl-pyridin-3-ol] came in with a melting point of 230 to 234 °C.

In general, melting point refers to the temperature of the solid-liquid transition. Broadly, the mortality is the share of the test organisms that died. Low values mean more survivors, high ones fewer survivors. One may read the inhibition as the drop in the measured response relative to a control, in per cent.
